Counter-ions that a name gives are not always drawn.
Assays:
P. aeruginosa ATCC27853 = assay: BLI potentiation MIC (broth microdilution), P. aeruginosa ATCC27853 (PoxB, AmpC); format: cell-based; details: incubation 19 h; for MIC of Meropenem with BLI: BLI fixed 4 ug/ml
Description: (§1) MIC90 (μg/mL) is the lowest concentration of an antibiotic that will inhibit the visible growth of 90% of microorganisms after incubation as compared with a control group to which the antibiotic is not treated.
(§2) MIC values were measured by the broth microdilution method developed by the Clinical and Laboratory Standards Institute (CLSI) (see CLSI M07-A9, Methods for Dilution Antimicrobial Susceptibility Test for Bacteria that Grow Aerobically; Approved Standard-Ninth Edition (2012): CLSI, Villanova, Pa.). The in vitro antibacterial activity was measured with respect to the following 9 clinical isolates: P. aeruginosa (3 strains); K. pneumoniae (6 strains). The in vitro antibacterial activity of selected compounds was measured with respect to the following 15 clinical isolates: K. pneumoniae (15 strains).

K. pneumoniae ATCC700603 = assay: BLI potentiation MIC, K. pneumoniae ATCC700603 (SHV-3); format: cell-based; details: Klebsiella pneumoniae, ATCC700603, 19 h, read-out: MIC of Ceftazidime alone, no BLI; incubation 19 h
Description: as §1, §2

K. pneumoniae 5576 = assay: BLI potentiation MIC, K. pneumoniae 5576 (SHV-11, CMY-2, DHA-1, TEM-1); format: cell-based; details: Klebsiella pneumoniae, 5576, 19 h, read-out: MIC of Ceftazidime alone, no BLI; incubation 19 h
Description: as §1, §2

K. pneumoniae 3784 = assay: BLI potentiation MIC, K. pneumoniae 3784 (SHV-11, SHV-12, DHA-1); format: cell-based; details: incubation 19 h; for MIC of Meropenem with BLI: BLI fixed 4 ug/ml
Description: as §1, §2

K. pneumoniae 4006 = assay: BLI potentiation MIC, K. pneumoniae 4006 (SHV-12, CTX-M-15, TEM-1, OXA-9); format: cell-based; details: Klebsiella pneumoniae, 4006, 19 h, read-out: MIC of Ceftazidime alone, no BLI; incubation 19 h
Description: as §1, §2

Mouse pharmacokinetics = format: in vivo, ICR mouse; details: IV, 50 mg/kg, plasma; for AUC(0-inf) / Cmax / Tmax / clearance / half-life / Vd: ICR; for Vd: read-out: Vss
Description: The pharmacokinetics values were evaluated in a mouse model. The test compound (50 mg/kg) was injected into the tail vein of 8 week old ICR mouse, weighing approximately 26-30 g. […] Lab conditions were temperature of 22±3° C. and humidity of 50±20%.

P. aeruginosa ARC3506 = assay: BLI potentiation MIC, P. aeruginosa ARC3506 (VEB-1, OXA-10, OprD−, AmpC); format: cell-based; details: BLI fixed 4 ug/ml; incubation 19 h
Description: as §1, §2

P. aeruginosa ARC3514 = assay: BLI potentiation MIC, P. aeruginosa ARC3514 (KPC-2, OprD−, AmpC); format: cell-based; details: BLI fixed 4 ug/ml; incubation 19 h
Description: as §1, §2

K. pneumoniae NDM-506 = assay: BLI potentiation MIC, K. pneumoniae NDM-506; format: cell-based; details: BLI fixed 4 ug/ml; incubation 19 h
Description: as §1, §2

K. pneumoniae 4248 = assay: BLI potentiation MIC, K. pneumoniae 4248 (SHV-11, CTX-M-15, TEM-1, OXA-1); format: cell-based; details: BLI fixed 4 ug/ml; incubation 19 h
Description: as §1, §2

Which results are given for `CC(C)(O/N=C(\C(=O)N[C@@H]1C(=O)N2C(C(=O)[O-])=C(C[n+]3ccccc3)CS[C@H]12)c1csc(N)n1)C(=O)O` [Ceftazidime]?
MIC (P. aeruginosa ATCC27853; Pseudomonas aeruginosa, ATCC27853, 19 h, read-out: MIC of Ceftazidime alone, no BLI): 2 µg/mL; MIC (K. pneumoniae ATCC700603): 32 µg/mL; MIC (K. pneumoniae 5576): > 64 µg/mL; MIC (K. pneumoniae 3784; Klebsiella pneumoniae, 3784, 19 h, read-out: MIC of Ceftazidime alone, no BLI): > 64 µg/mL; MIC (K. pneumoniae 4006): > 64 µg/mL

Which results are given for `NCC1CC([C@@H]2CC[C@@H]3CN2C(=O)N3OS(=O)(=O)O)=NO1` (stereo partly drawn) [Example 2, [(2S,5R)-2-[5-(aminomethyl)-4,5-dihydroisoxazol-3-yl]-7-oxo-1,6-diazabicyclo[3.2.1]octan-6-yl] hydrogen sulfate]?
AUC(0-inf) (Mouse pharmacokinetics): 34500 ± 3610 ng·h/mL; Cmax (Mouse pharmacokinetics): 74.4 ± 3.44 µg/mL; Tmax (Mouse pharmacokinetics): 4.8 min; clearance (Mouse pharmacokinetics): 24.3 mL/min/kg; half-life (Mouse pharmacokinetics): 88.2 ± 9.6 min; Vd (Mouse pharmacokinetics): 1.57 ± 0.12 L/kg; AUCnorm (Mouse pharmacokinetics): 0.69 ± 0.07 kg·h/L; Cmax, norm (Mouse pharmacokinetics): 1.49 ± 0.07 kg/L

With `NCC1(CN)CC([C@@H]2CC[C@@H]3CN2C(=O)N3OS(=O)(=O)O)=NO1` [Example 5, [(2S,5R)-2-[5,5-bis(aminomethyl)-4H-isoxazol-3-yl]-7-oxo-1,6-diazabicyclo[3.2.1]octan-6-yl] hydrogen sulfate] as the molecule, how does the AUC(0-inf) (Mouse pharmacokinetics) read?
Its AUC(0-inf) is 55300 ± 4160 ng·h/mL.

And the Cmax (Mouse pharmacokinetics)?
Its Cmax is 103 ± 9.93 µg/mL.

And the Tmax (Mouse pharmacokinetics)?
The Tmax was 4.8 min.

What about the clearance (Mouse pharmacokinetics) of the same molecule?
The clearance was 15.2 mL/min/kg.

What about the half-life (Mouse pharmacokinetics) of the same molecule?
Its half-life is 191 ± 93.6 min.

What about the Vd (Mouse pharmacokinetics) of the same molecule?
Its Vd is 2.23 ± 0.61 L/kg.

And the AUCnorm (Mouse pharmacokinetics)?
The AUCnorm was 1.11 ± 0.08 kg·h/L.

And the “Cmax, norm” value (Mouse pharmacokinetics)?
Its value is 2.06 ± 0.20 kg/L.

Which results are given for `NC(=O)CN1CCC2(CC([C@@H]3CC[C@@H]4CN3C(=O)N4OS(=O)(=O)O)=NO2)C1` (stereo partly drawn) [Example 12, [(2S,5R)-2-[7-(2-amino-2-oxo-ethyl)-1-oxa-2,7-diazaspiro[4.4]non-2-en-3-yl]-7-oxo-1,6-diazabicyclo[3.2.1]octan-6-yl] hydrogen sulfate]?
MIC of Meropenem with BLI (P. aeruginosa ATCC27853): 2 µg/mL; MIC of Meropenem with BLI (P. aeruginosa ARC3506): 64 µg/mL; MIC of Meropenem with BLI (P. aeruginosa ARC3514): >64 µg/mL; MIC of Meropenem with BLI (K. pneumoniae NDM-506): >64 µg/mL; MIC of Meropenem with BLI (K. pneumoniae 3784): 1 µg/mL; MIC of Meropenem with BLI (K. pneumoniae 4248): 0.125 µg/mL

Which results are given for `NCC1(CO)CC([C@@H]2CC[C@@H]3CN2C(=O)N3OS(=O)(=O)O)=NO1` (stereo partly drawn) [Example 13, [(2S,5R)-2-[5-(aminomethyl)-5-(hydroxymethyl)-4H-isoxazol-3-yl]-7-oxo-1,6-diazabicyclo[3.2.1]octan-6-yl] hydrogen sulfate]?
MIC of Meropenem with BLI (P. aeruginosa ATCC27853): 2 µg/mL; MIC of Meropenem with BLI (P. aeruginosa ARC3506): 32 µg/mL; MIC of Meropenem with BLI (P. aeruginosa ARC3514): >64 µg/mL; MIC of Meropenem with BLI (K. pneumoniae NDM-506): >64 µg/mL; MIC of Meropenem with BLI (K. pneumoniae 3784): 0.25 µg/mL; MIC of Meropenem with BLI (K. pneumoniae 4248): 0.0625 µg/mL

With `NCC1(C(N)=O)CC([C@@H]2CC[C@@H]3CN2C(=O)N3OS(=O)(=O)O)=NO1` (stereo partly drawn) [Example 14, [(2S,5R)-2-[5-(aminomethyl)-5-carbamoyl-4H-isoxazol-3-yl]-7-oxo-1,6-diazabicyclo[3.2.1]octan-6-yl] hydrogen sulfate] as the molecule, how does the “MIC of Meropenem with BLI” value (P. aeruginosa ATCC27853) read?
The value was 2 µg/mL.

And the “MIC of Meropenem with BLI” value (P. aeruginosa ARC3506)?
The value was 64 µg/mL.

And the “MIC of Meropenem with BLI” value (P. aeruginosa ARC3514)?
Its value is >64 µg/mL.

What about the “MIC of Meropenem with BLI” value (K. pneumoniae NDM-506) of the same molecule?
Its value is >64 µg/mL.

And the “MIC of Meropenem with BLI” value (K. pneumoniae 3784)?
Its value is 0.25 µg/mL.

What about the “MIC of Meropenem with BLI” value (K. pneumoniae 4248) of the same molecule?
The value was 0.0625 µg/mL.
